Results taken from patent US12109246B2, “Composition for the treatment and/or prevention of lower urinary tract symptoms” (SERELYS PHARMA S.A.M., priority 2019, dated 2024).

Molecular target: T1, muscarinic M3 receptor (Homo sapiens, UniProt P20309)
T1 construct: using HEK293 cells which express the receptor endogenously; endogenous in cells; host or cells: HEK293
Test: Antagonist activity on muscarinic M3 receptor, FLIPR Tetra calcium assay in HEK293 cells
Format: cell-based
Conditions: antagonist mode versus carbachol at its EC50, HEK293 cells, calcium fluorescence

T1 sequence (P20309 whole entry): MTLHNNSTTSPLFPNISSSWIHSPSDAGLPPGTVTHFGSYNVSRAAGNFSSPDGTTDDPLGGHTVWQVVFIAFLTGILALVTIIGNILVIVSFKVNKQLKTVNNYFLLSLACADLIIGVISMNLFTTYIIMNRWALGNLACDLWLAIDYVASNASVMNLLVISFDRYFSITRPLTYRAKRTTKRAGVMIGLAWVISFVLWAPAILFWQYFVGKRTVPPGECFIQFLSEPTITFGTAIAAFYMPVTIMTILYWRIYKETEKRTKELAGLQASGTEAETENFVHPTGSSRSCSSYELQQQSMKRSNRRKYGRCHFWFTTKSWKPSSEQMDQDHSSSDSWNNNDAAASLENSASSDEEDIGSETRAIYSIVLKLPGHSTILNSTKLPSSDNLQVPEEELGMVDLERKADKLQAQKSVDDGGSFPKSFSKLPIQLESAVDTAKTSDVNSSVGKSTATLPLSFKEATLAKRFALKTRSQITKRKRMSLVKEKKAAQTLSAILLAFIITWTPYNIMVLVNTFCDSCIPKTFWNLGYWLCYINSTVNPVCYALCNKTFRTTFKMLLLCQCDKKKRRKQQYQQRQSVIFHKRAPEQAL

IC50: >1 mg/L
Substance: Vitamin E [Vitamin E (as in Example 1)]
